The subject of the assay is mice. The note with it: mouse, in vivo, sc.

Consider 3 (RRQRRF) [compound 3], for which the “immune response in immunized mice (ELISA, FIG. 2)” value is recorded as “either an immune response occurred only in some individuals or a weak immune response was shown”.

(Values after patent US8114408B2 (priority 2007, dated 2012).)
